# According to patent US20160060260A1, “BROMODOMAIN INHIBITORS FOR TREATING DISEASE” (Board of Regents, The University of Texas System, priority 2014, published 2016):
# Molecular target: T1, Recombinant human His-tagged Trim24-PHD-bromodomain (Homo sapiens, UniProt O15164)
# T1 construct: Recombinant human His-tagged Trim24-PHD-bromodomain (produced in-house); made in house
# T1 sequence (O15164 824-1006 limits assumed): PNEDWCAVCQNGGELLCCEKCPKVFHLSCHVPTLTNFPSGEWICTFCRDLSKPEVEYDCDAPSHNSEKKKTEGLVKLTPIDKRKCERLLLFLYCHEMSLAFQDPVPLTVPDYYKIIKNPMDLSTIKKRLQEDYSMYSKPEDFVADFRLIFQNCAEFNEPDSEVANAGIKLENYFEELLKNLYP
# Assay: Trim24 AlphaScreen Assay
# Assay type: binding
# Conditions: 5 nM Trim24 protein, 15 nM biotinylated H3K23ac (1-33aa) peptide
# Outline: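 AlphaScreen read-out after 2 h with streptavidin donor and Ni-chelate acceptor beads at 10 ug/mL each, following 1 h room-temperature incubation of compound, His-tagged PHD-bromodomain protein and biotin-H3K23ac (1-33aa) peptide in Hepes pH 7.5 buffer with NaCl and Triton X-100. Signals normalised between no-compound and no-protein wells; IC50 from four-parameter logistic curves.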
row,IC50,SMILES
1,100 to 1000 nM,"CCCOc1cc(OCCCOC)cc(Oc2cc3c(cc2NS(=O)(=O)c2cc(OC)cc(OC)c2)n(C)c(=O)n3C)c1 [Example 166, 3,5-dimethoxy-N-(6-(3-(3-methoxypropoxy)-5-propoxyphenoxy)-1,3-dimethyl-2-oxo-2,3-dihydro-1H-benzo[d]imidazol-5-yl)benzenesulfonamide]"
2,100 to 1000 nM,"CCCOc1cc(OCCCOC)cc(Oc2cc3c(cc2NS(=O)(=O)c2ccc(OC(F)F)cc2)n(C)c(=O)n3C)c1 [Example 167, 4-(difluoromethoxy)-N-(6-(3-(3-methoxypropoxy)-5-propoxyphenoxy)-1,3-dimethyl-2-oxo-2,3-dihydro-1H-benzo[d]imidazol-5-yl)benzenesulfonamide]"
3,10 to 100 nM,"CCCOc1cccc(Oc2cc3c(cc2NS(=O)(=O)c2ccccn2)n(C)c(=O)n3C)c1 [Example 168, N-(1,3-dimethyl-2-oxo-6-(3-propoxyphenoxy)-2,3-dihydro-1H-benzo[d]imidazol-5-yl)pyridine-2-sulfonamide]"
4,100 to 1000 nM,"CCCOc1cccc(Oc2cc3c(cc2NS(=O)(=O)c2cc(OC)cc(OC)c2)n(C)c(=O)n3C)c1 [Example 169, N-(1,3-dimethyl-2-oxo-6-(3-propoxyphenoxy)-2,3-dihydro-1H-benzo[d]imidazol-5-yl)-3,5-dimethoxybenzenesulfonamide]"
5,100 to 1000 nM,"CCCOc1cccc(Oc2cc3c(cc2NS(=O)(=O)c2cccc(OC)c2)n(C)c(=O)n3C)c1 [Example 170, N-(1,3-dimethyl-2-oxo-6-(3-propoxyphenoxy)-2,3-dihydro-1H-benzo[d]imidazol-5-yl)-3-methoxybenzenesulfonamide]"
6,100 to 1000 nM,"CCCOc1cccc(Oc2cc3c(cc2NS(=O)(=O)c2ccc(OC)cc2)n(C)c(=O)n3C)c1 [Example 171, N-(1,3-dimethyl-2-oxo-6-(3-propoxyphenoxy)-2,3-dihydro-1H-benzo[d]imidazol-5-yl)-4-methoxybenzenesulfonamide]"
7,100 to 1000 nM,"CCCOc1cccc(Oc2cc3c(cc2NS(=O)(=O)c2cccc4c2OCCO4)n(C)c(=O)n3C)c1 [Example 172, N-(1,3-dimethyl-2-oxo-6-(3-propoxyphenoxy)-2,3-dihydro-1H-benzo[d]imidazol-5-yl)-2,3-dihydrobenzo[b][1,4]dioxine-5-sulfonamide]"
8,100 to 1000 nM,"CCCOc1cccc(Oc2cc3c(cc2NS(=O)(=O)c2cccc(N(C)C)c2)n(C)c(=O)n3C)c1 [Example 173, N-(1,3-dimethyl-2-oxo-6-(3-propoxyphenoxy)-2,3-dihydro-1H-benzo[d]imidazol-5-yl)-3-(dimethylamino)benzenesulfonamide]"
9,10 to 100 nM,"CCCOc1cccc(Oc2cc3c(cc2NS(=O)(=O)c2ccc(OC)c(NC(C)=O)c2)n(C)c(=O)n3C)c1 [Example 174, N-(5-(N-(1,3-dimethyl-2-oxo-6-(3-propoxyphenoxy)-2,3-dihydro-1H-benzo[d]imidazol-5-yl)sulfamoyl)-methoxyphenyl)acetamide]"
10,100 to 1000 nM,"CCCOc1cc(OCCCOC)cc(Oc2cc3c(cc2NS(=O)(=O)c2cccc4c2OCCO4)n(C)c(=O)n3C)c1 [Example 175, N-(6-(3-(3-methoxypropoxy)-5-propoxyphenoxy)-1,3-dimethyl-2-oxo-2,3-dihydro-1H-benzo[d]imidazol-5-yl)-2,3-dihydrobenzo[b][1,4]dioxine-5-sulfonamide]"
11,10 to 100 nM,"CCCOc1cc(OCCCOC)cc(Oc2cc3c(cc2NS(=O)(=O)c2cccc4[nH]c(=O)c(=O)[nH]c24)n(C)c(=O)n3C)c1 [Example 176, N-(6-(3-(3-methoxypropoxy)-5-propoxyphenoxy)-1,3-dimethyl-2-oxo-2,3-dihydro-1H-benzo[d]imidazol-5-yl)-2,3-dioxo-1,2,3,4-tetrahydroquinoxaline-5-sulfonamide]"
12,100 to 1000 nM,"CCCOc1cc(OCCCOC)cc(Oc2cc3c(cc2NS(=O)(=O)c2ccc(N(C)C)cc2)n(C)c(=O)n3C)c1 [Example 177, 4-(dimethylamino)-N-(6-(3-(3-methoxypropoxy)-5-propoxyphenoxy)-1,3-dimethyl-2-oxo-2,3-dihydro-benzo[d]imidazol-5-yl)benzenesulfonamide]"
13,10 to 100 nM,"CCCOc1cc(OCCCCCCO)cc(Oc2cc3c(cc2NS(=O)(=O)c2cnn(C)c2C)n(C)c(=O)n3C)c1 [Example 178, N-(6-(3-((6-hydroxyhexyl)oxy)-5-propoxyphenoxy)-1,3-dimethyl-2-oxo-2,3-dihydro-1H-benzo[d]imidazol-5-yl)-1,5-dimethyl-1H-pyrazole-4-sulfonamide]"
14,10 to 100 nM,"CCCOc1cc(OCCCCCCO)cc(Oc2cc3c(cc2NS(=O)(=O)c2ccc(OC)c(OC)c2)n(C)c(=O)n3C)c1 [Example 179, N-(6-(3-((6-hydroxyhexyl)oxy)-5-propoxyphenoxy)-1,3-dimethyl-2-oxo-2,3-dihydro-1H-benzo[d]imidazol-5-yl)-3,4-dimethoxybenzenesulfonamide]"
15,10 to 100 nM,"CCCOc1cc(OCCCCCCO)cc(Oc2cc3c(cc2NS(=O)(=O)c2cccnc2)n(C)c(=O)n3C)c1 [Example 180, N-(6-(3-((6-hydroxyhexyl)oxy)-5-propoxyphenoxy)-1,3-dimethyl-2-oxo-2,3-dihydro-1H-benzo[d]imidazol-5-yl)pyridine-3-sulfonamide]"
16,10 to 100 nM,"CCCOc1cc(OCCCCCCO)cc(Oc2cc3c(cc2NS(=O)(=O)c2cn(C)cn2)n(C)c(=O)n3C)c1 [Example 181, N-(6-(3-((6-hydroxyhexyl)oxy)-5-propoxyphenoxy)-1,3-dimethyl-2-oxo-2,3-dihydro-1H-benzo[d]imidazol-5-yl)-1-methyl-1H-imidazole-4-sulfonamide]"
17,10 to 100 nM,"CCCOc1cc(OCCCCCCN)cc(Oc2cc3c(cc2NS(=O)(=O)c2cn(C)c(C)n2)n(C)c(=O)n3C)c1 [Example 182, N-(6-(3-((6-aminohexyl)oxy)-5-propoxyphenoxy)-1,3-dimethyl-2-oxo-2,3-dihydro-1H-benzo[d]imidazol-5-yl)-1,2-dimethyl-1H-imidazole-4-sulfonamide]"
18,1 to 10 nM,"CCCOc1cc(OCCCCCCN)cc(Oc2cc3c(cc2NS(=O)(=O)c2cccnc2)n(C)c(=O)n3C)c1 [Example 183, N-(6-(3-((6-aminohexyl)oxy)-5-propoxyphenoxy)-1,3-dimethyl-2-oxo-2,3-dihydro-1H-benzo[d]imidazol-5-yl)pyridine-3-sulfonamide]"
19,10 to 100 nM,"COc1ccc(S(=O)(=O)Nc2cc3c(cc2Oc2cccc(OCC(F)(F)F)c2)n(C)c(=O)n3C)cc1OC [Example 184, N-(1,3-dimethyl-2-oxo-6-(3-(2,2,2-trifluoroethoxy)phenoxy)-2,3-dihydro-1H-benzo[d]imidazol-5-yl)-3,4-dimethoxybenzenesulfonamide]"
20,100 to 1000 nM,"CCCOc1cc(OCCCCCCO)cc(Oc2cc3c(cc2NS(=O)(=O)c2cccc(C(=O)OC)c2)n(C)c(=O)n3C)c1 [Example 185, methyl 3-(N-(6-(3-((6-hydroxynhexyl)oxy)-5-propoxyphenoxy)-1,3-dimethyl-2-oxo-2,3-dihydro-1H-benzo[d]imidazol-5-yl)sulfamoyl)benzoate]"
21,10 to 100 nM,"CCCOc1cc(OCCCCCCN)cc(Oc2cc3c(cc2NS(=O)(=O)c2ccccn2)n(C)c(=O)n3C)c1 [Example 187, N-(6-(3-((6-aminohexyl)oxy)-5-propoxyphenoxy)-1,3-dimethyl-2-oxo-2,3-dihydro-1H-benzo[d]imidazol-5-yl)pyridine-2-sulfonamide]"
22,10 to 100 nM,"CCCOc1cc(OCCCCCCN(C)C)cc(Oc2cc3c(cc2NS(=O)(=O)c2cn(C)cn2)n(C)c(=O)n3C)c1 [Example 188, N-(6-(3-((6-(dimethylamino)hexyl)oxy)-5-propoxyphenoxy)-1,3-dimethyl-2-oxo-2,3-dihydro-1H-benzo[d]imidazol-5-yl)-1-methyl-1H-imidazole-4-sulfonamide]"
23,1 to 10 nM,"CCCOc1cc(OCCCCCCN)cc(Oc2cc3c(cc2NS(=O)(=O)c2cnn(C)c2C)n(C)c(=O)n3C)c1 [Example 189, N-(6-(3-((6-aminohexyl)oxy)-5-propoxyphenoxy)-1,3-dimethyl-2-oxo-2,3-dihydro-1H-benzo[d]imidazol-5-yl)-1,5-dimethyl-1H-pyrazole-4-sulfonamide]"
24,10 to 100 nM,"CCCOc1cc(OCCCCCCN)cc(Oc2cc3c(cc2NS(=O)(=O)c2cccc(C#N)c2)n(C)c(=O)n3C)c1 [Example 190, N-(6-(3-((6-aminohexyl)oxy)-5-propoxyphenoxy)-1,3-dimethyl-2-oxo-2,3-dihydro-1H-benzo[d]imidazol-5-yl)-3-cyanobenzenesulfonamide]"
25,10 to 100 nM,"CCCOc1cc(OCCCCCCN)cc(Oc2cc3c(cc2NS(=O)(=O)c2cccc(C(=O)OC)c2)n(C)c(=O)n3C)c1 [Example 191, methyl 3-(N-(6-(3-((6-aminohexyl)oxy)-5-propoxyphenoxy)-1,3-dimethyl-2-oxo-2,3-dihydro-1H-benzo[d]imidazol-5-yl)sulfamoyl)benzoate]"
26,10 to 100 nM,"COC(=O)c1cccc(S(=O)(=O)Nc2cc3c(cc2Oc2cccc(OCC(F)(F)F)c2)n(C)c(=O)n3C)c1 [Example 192, methyl 3-(N-(1,3-dimethyl-2-oxo-6-(3-(2,2,2-trifluoroethoxy)phenoxy)-2,3-dihydro-1H-benzo[d]imidazol-5-yl)sulfamoyl)benzoate]"
27,100 to 1000 nM,"C=CCOc1cccc(S(=O)(=O)Nc2cc3c(cc2Oc2cccc(OCC(F)(F)F)c2)n(C)c(=O)n3C)c1 [Example 193, 3-(allyloxy)-N-(1,3-dimethyl-2-oxo-6-(3-(2,2,2-trifluoroethoxy)phenoxy)-2,3-dihydro-1H-benzo[d]imidazol-5-yl)benzenesulfonamide]"

row,SMILES,IC50
1,"CCCOc1cc(OCCCCN)cc(Oc2cc3c(cc2NS(=O)(=O)c2cn(C)cn2)n(C)c(=O)n3C)c1 [Example 186, N-(6-(3-(4-aminobutoxy)-5-propoxyphenoxy)-1,3-dimethyl-2-oxo-2,3-dihydro-1H-benzo[d]imidazol-5-yl)-1-methyl-1H-imidazole-4-sulfonamide]",1 to 10 nM
